Patent US9155714B2, “Compositions comprising an aromatic alcohol and a TRPV-1 antagonist, and uses thereof” (JOHNSON & JOHNSON CONSUMER INC., priority 2013, dated 2015)
“And” between values parts separate entries of the source, which are not always exact repeats. Equal values may be shown once. Each block holds one molecule with its values, some of them ahead of it.

Experiments:
Format in all cases: cell-based
[1] = biological target: T1, human vanilloid receptor-1 (TRPV-1) (Homo sapiens, UniProt Q8NER1); test: Calcium Flux Test, inhibition of phenoxyethanol-induced calcium flux; settings: for reducing phenoxyethanol-induced calcium flux (result in words): TRPV-1-expressing HEK293 cells
T1 construct: host or cells: HEK293
Method: (§1) The Calcium Flux Test is performed in the following manner: Recombinant HEK293 cells expressing human vanilloid receptor-1 (TRPV-1; accession number AF196175, EMD Millipore, Billerica, Mass.) are grown in D-MEM/F-12 media (Life Technologies, Grand Island, N.Y.) supplemented with 10% fetal bovine serum, 1% non essential amino acids and 400 μg/mL Geneticin (Gibco, Life Technologies). Cells are plated at a concentration of 15,000 cells per well on poly-D-lysine-coated 384 well plates and incubated overnight at 5% CO2 and 37° C. After incubation, culture media is removed from the wells and replaced with 50 μL per well of Fluo-8 No Wash dye solution (#36315, AAT Bioquest, Sunnyvale, Calif.). The Fluo-8 dye solution is prepared by mixing 20 uL of Fluo-8 NW with 30 mL of 0.33× Pluronic® F127 Plus (BASF of Ludwigshafen, Germany) in assay buffer (1×HBSS+2% of HEPES). Fluo-8 dye is incubated for 30 minutes at room temperature. Intracellular calcium (Ca^2+) flux is monitored upon exposure to aromatic alcohol in DMSO vehicle by measuring fluorescence intensity at Ex/Em 490/525 on a Functional Drug Screening System (FDSS; Hamamatsu, […]). Measurements are taken every second for a period of 4 minutes. […] Statistical differences are obtained using One Way ANOVA with Tukey Post-hoc test; statistical significance is defined as P≦0.05.
(§2) The Maximum RFU obtained with a given concentration of aromatic alcohol is compared with the Maximum RFU obtained using the same concentration of aromatic alcohol but pretreated with the TRPV-1 antagonist for 5 minutes after dye incubation. Percent inhibition achieved with the TRPV-1 antagonist is calculated as: 100*((Maximum RFU of aromatic alcohol−Maximum RFU of aromatic alcohol pretreated with TRPV-1 antagonist)/Maximum RFU of aromatic alcohol).
(§3) Capsazepine and AMG9810 were tested for activity as TRPV-1 antagonists using the Calcium Flux Test using two different concentrations of phenoxyethanol in DMSO. They were also tested using the Calcium Flux Test in which phenoxyethanol was replaced with capsaicin. […]

[2] = biological target: T1, human vanilloid receptor-1 (TRPV-1); test: Calcium Flux Test, phenoxyethanol replaced with capsaicin (capsaicin-induced calcium flux)
Method: as §1, §2, §3

[3] = biological target: T1, human vanilloid receptor-1 (TRPV-1); test: Calcium Flux Test, activity as TRPV-1 agonist; parameters: key: **: Statistically significant; n/s: Not statistically significant
Method: as §1
(§4) Phenoxyethanol was tested at a series of concentrations in DMSO for activity as a TRPV-1 agonist according to the Calcium Flux Test described above. Capsaicin was used as a positive control.
(§5) Maximum RFU values for treatment with phenoxyethanol or capsaisin were compared to the Maximum RFU for a DMSO vehicle alone. Concentrations of phenoxyethanol and capsaicin are reported in milimolar (mM) and nanomolar (nM), respectively.
(§6) Benzyl alcohol and sodium bicarbonate were tested using the Calcium Flux Test.
(§7) Benzyl alcohol and phenethyl alcohol were tested at a series of concentrations in DMSO for activity as a TRPV-1 agonist as described in Example 1. Concentrations of benzyl alcohol and phenethyl alcohol are reported in units of % w/v.

[4] = biological target: T1, human vanilloid receptor-1 (TRPV-1); test: Calcium Flux Test, activity as TRPV-1 agonist
Method: as §1, §4, §5, §6, §7

[5] = AMG9810 0.6104 nM, phenoxyethanol 2 mM
[6] = AMG9810 2 nM, phenoxyethanol 2 mM
[7] = AMG9810 10 nM, phenoxyethanol 2 mM
[8] = AMG9810 39 nM, phenoxyethanol 2 mM
[9] = AMG9810 39 nM, phenoxyethanol 3 mM
[10] = AMG9810 156 nM, phenoxyethanol 2 mM
[11] = AMG9810 156 nM, phenoxyethanol 3 mM
[12] = AMG9810 625 nM, phenoxyethanol 2 mM
[13] = AMG9810 625 nM, phenoxyethanol 3 mM
[14] = AMG9810 2500 nM, phenoxyethanol 2 mM
[15] = AMG9810 2500 nM, phenoxyethanol 3 mM
[16] = AMG9810 10000 nM, phenoxyethanol 2 mM
[17] = AMG9810 10000 nM, phenoxyethanol 3 mM
[18] = AMG9810 625 nM, capsaicin 100 nM
[19] = AMG9810 625 nM, capsaicin 300 nM
[20] = AMG9810 2500 nM, capsaicin 100 nM
[21] = AMG9810 2500 nM, capsaicin 300 nM
[22] = AMG9810 10000 nM, capsaicin 100 nM
[23] = AMG9810 10000 nM, capsaicin 300 nM
[24] = compound 25 μM, phenoxyethanol 2 mM
[25] = compound 25 μM, phenoxyethanol 3 mM
[26] = compound 100 μM, phenoxyethanol 2 mM
[27] = compound 100 μM, phenoxyethanol 3 mM
[28] = compound 100 μM, capsaicin 300 nM

T1 sequence (Q8NER1 whole entry): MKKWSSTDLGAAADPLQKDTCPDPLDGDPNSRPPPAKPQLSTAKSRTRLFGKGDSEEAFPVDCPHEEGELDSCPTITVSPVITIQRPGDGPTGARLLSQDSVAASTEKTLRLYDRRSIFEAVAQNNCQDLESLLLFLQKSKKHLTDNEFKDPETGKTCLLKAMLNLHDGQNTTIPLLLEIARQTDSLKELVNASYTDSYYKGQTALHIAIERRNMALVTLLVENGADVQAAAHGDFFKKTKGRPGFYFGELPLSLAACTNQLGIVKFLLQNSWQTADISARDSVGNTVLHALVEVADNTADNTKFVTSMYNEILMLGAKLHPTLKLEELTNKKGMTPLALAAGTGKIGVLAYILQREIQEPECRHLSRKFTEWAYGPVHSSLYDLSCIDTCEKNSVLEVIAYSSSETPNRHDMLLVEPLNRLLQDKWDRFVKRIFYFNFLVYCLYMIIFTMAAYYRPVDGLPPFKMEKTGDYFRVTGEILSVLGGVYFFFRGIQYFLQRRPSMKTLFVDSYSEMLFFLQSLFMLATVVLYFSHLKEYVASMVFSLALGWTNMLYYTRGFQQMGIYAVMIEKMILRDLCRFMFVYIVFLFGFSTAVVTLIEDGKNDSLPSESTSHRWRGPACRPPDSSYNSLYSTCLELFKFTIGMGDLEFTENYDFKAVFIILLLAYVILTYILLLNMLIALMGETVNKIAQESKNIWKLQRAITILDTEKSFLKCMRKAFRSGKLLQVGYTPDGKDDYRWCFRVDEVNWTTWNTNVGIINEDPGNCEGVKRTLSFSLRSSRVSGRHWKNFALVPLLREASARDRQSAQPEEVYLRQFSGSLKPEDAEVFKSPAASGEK

SMILES: CC(C)(C)c1ccc(/C=C/C(=O)Nc2ccc3c(c2)OCCO3)cc1 [AMG9810, (E)-3-(4-t-butylphenyl)-N-(2,3-dihydrobenzo[b][1,4]dioxin-6-yl)acrylamide]
Maximum RFU (mean ± SD) ([1]; AMG9810 0.1526 nM, phenoxyethanol 2 mM): 261.54 ± 114.76 RFU
Maximum RFU (mean ± SD) ([1]; AMG9810 0.1526 nM, phenoxyethanol 3 mM): 412.30 ± 110.68 RFU
Maximum RFU (mean ± SD) [1, 5]: 189.72 ± 34.94 RFU
inhibition at 0.0006104 µM [1, 5]: 12.3%
Maximum RFU (mean ± SD) ([1]; AMG9810 0.6104 nM, phenoxyethanol 3 mM): 405.29 ± 152.93 RFU
Maximum RFU (mean ± SD) [1, 6]: 202.96 ± 18.01 RFU
inhibition at 0.002 µM [1, 6]: 6.2%
Maximum RFU (mean ± SD) ([1]; AMG9810 2 nM, phenoxyethanol 3 mM): 265.02 ± 52.11 RFU
Maximum RFU (mean ± SD) [1, 7]: 110.26 ± 27.80 RFU
inhibition at 0.01 µM [1, 7]: 49%
Maximum RFU (mean ± SD) ([1]; AMG9810 10 nM, phenoxyethanol 3 mM): 315.60 ± 125.77 RFU
Maximum RFU (mean ± SD) [1, 8]: 165.37 ± 162.35 RFU
inhibition at 0.039 µM [1, 8]: 23.6%
Maximum RFU (mean ± SD) [1, 9]: 98.74 ± 23.34 RFU
inhibition at 0.039 µM [1, 9]: 56%
Maximum RFU (mean ± SD) [1, 10]: 58.21 ± 5.97 RFU
inhibition at 0.156 µM [1, 10]: 73.1%
Maximum RFU (mean ± SD) [1, 11]: 75.59 ± 10.97 RFU
inhibition at 0.156 µM [1, 11]: 66.3%
Maximum RFU (mean ± SD) [1, 12]: 55.53 ± 8.48 RFU
inhibition at 0.625 µM [1, 12]: 74.3%
Maximum RFU (mean ± SD) [1, 13]: 58.16 ± 1.97 RFU
inhibition at 0.625 µM [1, 13]: 74.1%
Maximum RFU (mean ± SD) [1, 14]: 58.00 ± 5.34 RFU
inhibition at 2.5 µM [1, 14]: 73.2%
Maximum RFU (mean ± SD) [1, 15]: 68.59 ± 4.15 RFU
inhibition at 2.5 µM [1, 15]: 69.4%
Maximum RFU (mean ± SD) [1, 16]: 59.78 ± 3.84 RFU
inhibition at 10 µM [1, 16]: 72.4%
Maximum RFU (mean ± SD) [1, 17]: 65.74 ± 4.33 RFU
inhibition at 10 µM [1, 17]: 70.7%
Maximum RFU (mean ± SD) ([2]; AMG9810 39 nM, capsaicin 100 nM): 942.69 ± 88.43 RFU
Maximum RFU (mean ± SD) ([2]; AMG9810 39 nM, capsaicin 300 nM): 975.35 ± 32.01 RFU
Maximum RFU (mean ± SD) ([2]; AMG9810 156 nM, capsaicin 100 nM): 916.79 ± 31.53 RFU
Maximum RFU (mean ± SD) ([2]; AMG9810 156 nM, capsaicin 300 nM): 958.56 ± 16.66 RFU
Maximum RFU (mean ± SD) [2, 18]: 735.36 ± 114.75 RFU
inhibition at 0.625 µM [2, 18]: 13.4%
Maximum RFU (mean ± SD) [2, 19]: 747.36 ± 77.35 RFU
inhibition at 0.625 µM [2, 19]: 14.6%
Maximum RFU (mean ± SD) [2, 20]: 85.41 ± 20.60 RFU
inhibition at 2.5 µM [2, 20]: 90%
Maximum RFU (mean ± SD) [2, 21]: 78.33 ± 46.56 RFU
inhibition at 2.5 µM [2, 21]: 91%
Maximum RFU (mean ± SD) [2, 22]: 47.00 ± 11.29 RFU
inhibition at 10 µM [2, 22]: 94.5%
Maximum RFU (mean ± SD) [2, 23]: 44.15 ± 2.20 RFU
inhibition at 10 µM [2, 23]: 95%

SMILES: OCc1ccccc1 [Benzyl Alcohol, benzyl alcohol]
P < 0.05 Compared to Vehicle ([3]; benzyl alcohol 0.25 mM): n/s
P < 0.05 Compared to Vehicle ([3]; benzyl alcohol 0.5 mM): n/s
P < 0.05 Compared to Vehicle ([3]; benzyl alcohol 1 mM): n/s
P < 0.05 Compared to Vehicle ([3]; benzyl alcohol 2 mM): n/s
P < 0.05 Compared to Vehicle ([3]; benzyl alcohol 4 mM): **
intracellular calcium flux in TRPV-1-transfected HEK cells (result in words) [4]: dose dependent increases
Maximum RFU ([4]; benzyl alcohol 0.000161 % w/v alone (no antagonist)): 10.95 ± 0.23 RFU and 8.44 RFU and 16.17 ± 1.16 RFU
Maximum RFU (mean ± SD) ([4]; benzyl alcohol 0.25 mM (Example 7)): 64.45 ± 28.15 RFU
Maximum RFU (mean ± SD) ([4]; benzyl alcohol 0.5 mM (Example 7)): 104.45 ± 12.50 RFU
Maximum RFU (mean ± SD) ([4]; benzyl alcohol 1 mM (Example 7)): 113.51 ± 4.70 RFU
Maximum RFU (mean ± SD) ([4]; benzyl alcohol 2 mM (Example 7)): 135.45 ± 12.15 RFU
Maximum RFU (mean ± SD) ([4]; benzyl alcohol 4 mM (Example 7)): 362.51 ± 126.09 RFU
Maximum RFU ([4]; benzyl alcohol 0.004357 % w/v alone (no antagonist)): 43.91 ± 3.74 RFU and 31.54 RFU and 55.75 ± 2.68 RFU
Maximum RFU ([4]; benzyl alcohol 0.013072 % w/v alone (no antagonist)): 160.8 ± 12.61 RFU and 93.35 RFU and 124.54 ± 13.18 RFU
Maximum RFU ([4]; benzyl alcohol 0.04 % w/v alone (no antagonist)): 608.23 ± 10.21 RFU and 410.41 RFU and 424.01 ± 2.92 RFU
Maximum RFU ([4]; benzyl alcohol 6.64E−07 % w/v alone (no antagonist)): 9.37 ± 1.66 RFU and 7.66 RFU and 13.85 ± 1.83 RFU
activity for TRPV-1 activation (result in words) ([4]; doses of 2 mM and below, Example 7): did not show statistically significant activity

SMILES: CCN(CC)CC(=O)Nc1c(C)cccc1C [Lidocaine, lidocaine]
reducing phenoxyethanol-induced calcium flux (result in words) [1]: none of hydrocortisone, diphenhydramine or lidocaine were effective
Maximum RFU (mean ± SD) [1, 24]: 124.96 ± 22.24 RFU
Maximum RFU (mean ± SD) [1, 25]: 197.45 ± 41.14 RFU
Maximum RFU (mean ± SD) [1, 26]: 116.25 ± 25.92 RFU
Maximum RFU (mean ± SD) [1, 27]: 205.92 ± 16.97 RFU

Second part, led by results:

Maximum RFU (mean ± SD) [1, 24]: 158.25 ± 0.69 RFU
Maximum RFU (mean ± SD) [1, 25]: 312.62 ± 67.77 RFU
Maximum RFU (mean ± SD) [1, 26]: 141.61 ± 33.91 RFU
Maximum RFU (mean ± SD) [1, 27]: 195.47 ± 53.34 RFU
Maximum RFU (mean ± SD) [2, 28]: 825.37 ± 9.95 RFU
SMILES: CN(C)CCOC(c1ccccc1)c1ccccc1 [Diphenhydramine, diphenhydramine]
reducing phenoxyethanol-induced calcium flux (result in words) [1]: none of hydrocortisone, diphenhydramine or lidocaine were effective

Maximum RFU (mean ± SD) [1, 24]: 171.65 ± 83.27 RFU
Maximum RFU (mean ± SD) [1, 25]: 309.90 ± 40.00 RFU
Maximum RFU (mean ± SD) [1, 26]: 160.66 ± 30.14 RFU
Maximum RFU (mean ± SD) [1, 27]: 225.19 ± 38.09 RFU
Maximum RFU (mean ± SD) ([2]; compound 25 μM, capsaicin 300 nM): 950.97 ± 49.52 RFU
Maximum RFU (mean ± SD) [2, 28]: 963.83 ± 65.21 RFU
SMILES: C[C@]12CCC(=O)C=C1CC[C@@H]1[C@@H]2[C@@H](O)C[C@@]2(C)[C@H]1CC[C@]2(O)C(=O)CO [Hydrocortisone, hydrocortisone]
reducing phenoxyethanol-induced calcium flux (result in words) [1]: none of hydrocortisone, diphenhydramine or lidocaine were effective

intracellular calcium flux in TRPV-1-transfected HEK cells (result in words) [4]: dose dependent increases
SMILES: OCCc1ccccc1 [Phenethyl Alcohol, phenethyl alcohol]
Maximum RFU ([4]; phenethyl alcohol 0.000002 % w/v alone (no antagonist)): 12.8 ± 1.35 RFU and 6.43 RFU and 12.28 ± 3.52 RFU
Maximum RFU ([4]; phenethyl alcohol 0.013 % w/v alone (no antagonist)): 185.92 ± 28.6 RFU and 123.10 RFU and 200.02 ± 6.15 RFU
Maximum RFU ([4]; phenethyl alcohol 0.04 % w/v alone (no antagonist)): 548.5 ± 37.22 RFU and 441.18 RFU and 470.23 ± 7.11 RFU
Maximum RFU ([4]; phenethyl alcohol 0.12 % w/v alone (no antagonist)): 755.2 ± 12.89 RFU and 605.31 RFU and 580.44 ± 3.06 RFU
